Assay results: EP0692191A1, “UTILIZATION OF PHENYL COMPOUNDS FOR THE CONTROL OF PHYTOPARASITE NEMATODES” (UNIVERSIDAD DE LA LAGUNA, priority 1993, dated 1995)
Several values for one entry are separate records, joined by “and”; a condition that tells them apart may be missing. Equal values may be shown once. Read-outs that look alike come from different tables or passages of the source. Marks after values point to notes of the source that are not given here.

Legend:
[1] = tested on: Globodera rostochinesis und Globodera pallida; experiment: Nematicidal effect: lethal concentrations on second-stage juveniles, 24 h (Example 1); conditions: for LC50: read-out: CL50; for EC100: read-out: CL100
[2] = tested on: Tomate (Lycopersicum esculentum var. marglobe); experiment: Phytotoxicity: germination and elongation of tomato seeds (5.1); conditions: tomato, 0,05 and 0,5 mmol, statement in words
[3] = tested on: Globodera rostochienensis und Globodera pallida; experiment: Nematostatic effect: inhibition of hatching from cysts (Example 2); format: in vivo; conditions: for activity at 10 µM: im, 360 h, 0,01 mmol, read-out: Bildung von Einschlußkörpern im Verhältnis zur Bekämpfung
Text: Man realisierte ein Experiment, um den Effekt von trans-1,3-Diphenyl-2-propen-1-on bei der Bildung von Einschlußkörpern der Globodera spp. zu sehen. Man setzte 10 Zysten einer gemischten Population der Spezie Globodera rostochienensis und Globodera pallida in Violen mit 2cc einer Lösung, die 10 mmol ZnSO4 als Induktionsmittel der Bildung von Einschlußkörpern enthielt, und eine variable Konzentration von trans-1,3-Diphenyl-2-propen-1-on (0,05, 0,04, 0,03, 0,01 und 0,005 mmol). Die in den vier Replikatoren und in den Bekämpfungen entwickelten Jungen zählte man periodisch während 15 Tagen. Auf der Basis der Regressionskurve, die die Resultate des Experimentes besser beschreibt, schätzte man, was die Anwesenheit von nur 0,007 mmol von trans-1,3-Diphenyl-2-propen-1-on während 15 Tagen ausreichend war, um die Bildung von Einschlußkörpern auf die Hälfte derjenigen der Bekämpfung zu reduzieren.
Nachfolgend und mit dem Ziel zu sehen, ob die Hinderung der Bildung von Einschlußkörpern irreversibel sei, entfernt man die Zysten, wäscht man mit destilliertem Wasser und setzt sie in neue Violen mit 2cc einer Lösung, die lediglich das Induktionsmittel der Bildung von Einschlußkörpern (10 mmol ZnSO4) enthielt. Man fand heraus, das der Bildung von Einschlußkörpern hindernde Effekt des trans-1,3-Diphenyl-2-propen-1-on bei einer Dosis über 0,03 mmol unumkehrbar ist. Die bei der Dosis von 0,01 mmol auftretende Bildung von Einschlußkörpern war deutlich geringer als die der Bekämpfung (37,28%) in den ersten 15 Tagen und praktisch null ( es entwickelten sich lediglich 4,6% im Verhältnis zur Bekämpfung) nach der Herausnahme des trans-1,3-Diphenyl-2-propen-1-on bei 15 Tagen seit Beginn des Experimentes (Figur 3).

Albino-Swiss Maus = experiment: Acute toxicity in male Albino-Swiss mouse, intraperitoneal (Example 3); format: in vivo
Text: (§1) Man studierte die Toxizität bei einer männlichen ,Albino-Swiss" Maus mittels der intraperitonealen (i.p.) Anwendung variabler Dosen von trans-1,3-Diphenyl-2-propen-1-on bei 10 […] zur Behandlung. Man wertete die Nummer der toten Tiere nach 24 Stunden der Anwendung und berechnete die Gleichung der Regressionskurve, die die Resultate des Experimentes besser beschreibt. Ausgehend von den Regressionsgleichungen schätzte man dieDL50 und DL0 (Dosen des trans-1,3-Diphenyl-2-propen-1-on ohne offensichtlichen Effekt) bei 24 Stunden. Ebenso schätzte man das Potential der Toxizität (pT) (Luckey und Venugopal, 1977. J. Toxicol. & Envirn. Health. 2:633.)
(§2) Das DL50 schätzte man bei 1494 mg/Kg bei 24 Stunden (Figur 4). Ausgehend von diesen Daten deduzierte man das das trans-1,3-Diphenyl-2-propen-1-on eine leicht toxische Substanz ist mit DL50 schwankend zwischen 0,5 und 5 g/kg (Loomis, 1982. Ed acribia. Zaragoza, 33-43). Der letale Effekt null für trans-1,3-Diphenyl-2-propen-1-on bei 24 Stunden war DL0=653,85 mg/kg.
(§3) Das toxische Potential schätzte man auf pT50=2,14.

[4] = as above; format: in vivo, Albino-Swiss Maus; conditions: mouse, in vivo, ip, male Albino-Swiss mouse, intraperitoneal, 24 h, estimated from regression curve; read-out: DL50
Text: as §1, §2, §3

[5] = Brine shrimp assay (Example 4); conditions: in vivo, Artemia salina, read-out: CL50
Text: Die Analyse der Toxizität einer Substanz auf eine Salzgarnele Artemia salina (Brine shrimp) vermitteln eine angenäherte Vorstellung der biologischen Aktivität eines Produktes und insbesondere seiner Zytotoxizität.
Das Experiment wurde durchgeführt nach der Methode, die durch Mayer et al., 1982, beschrieben wurde ( Planta Med. 45:31-34), wobei das CL50 bei 24 Stunden für die Garnelen berechnet wird. Man benutzte vier Replikatoren, jeweils mit einer der Konzentrationen von trans-1,3-Diphenyl-2-propen-1-on (0,1, 0,01, 0,001 und 0,0001 mmol) und adäquate Bekämpfungen. Das geschätzte CL50 lag bei 0,0247 mmol, Dosen, die annäherungsweise mit denjenigen übereinstimmen, die für die Larven des zweiten Stadiums der Nematoden der Zyste berechnet wurden (CL50=0,033).

[6] = tomato, in vivo
Meloidogyne javanica = experiment: Field effect in a banana plantation greenhouse infested with nematodes (1.2); format: in vivo; conditions: 0,05 mmol solution, 3000 l with irrigation water; soil samples three days later
Text: Man bereitete 3000 Liter einer Lösung von trans-1,3-Diphenyl-2-propen-1-on 0,05 mmol und verwendete diese am Boden mit dem Wasser der Bewässerung in einem Gewächshaus der Bananenanpflanzung, das von dem phytoparasitischen Nematoden Meloidogyne javanica befallen war. Drei Tage später nahm man Proben des Bodens der behandelten Parzelle und stellte fest, das in den Extraktionen von Nematoden mittels der Methode der Zentrifugation auf Zucker (Extraktion von sowohl lebenden und toten Nematoden) lediglich 25% lebende Larven der M. javanica zu finden waren, sodaß die Behandlung mit trans-1,3-Diphenyl-2-propen-1-on eine Näherungsweiseeffektivität von 75% hatte.

M. javanica = experiment: Infestation index of tomato roots (1.3); format: in vivo; conditions: index 0 to 5; tomato plants in soil treated as in experiment 1.2; untreated soil ima=4,33
Text: Man pflanzte Tomatenpflanzen in einer kommerziell erhältlichen Auswahl, anfällig für M. javanica, um die Pflanzen der Bananenpflanzung, die mit trans-1,3-Diphenyl-2-propen-1-on des Experimentes 1.2 behandelt wurde, wie auch um solche, die nicht behandelt wurden. Der Index des Befalles der Wurzeln der Tomate gab uns eine näherungsweise Vorstellung des Niveaus der Infektion mit Nematoden der Wurzelknoten im Feld (Bridge & Page, 1980. Tropical Pest Management, 26:296-298). Zur Klassifikation der angegriffe der Nematoden auf die Wurzeln der Tomate etablierte man einen Index des Befalles von 0 bis 5. Die Pflanzen, die in dem mit trans-1,3-Diphenyl-2-propen-1-on behandeltem Boden wuchsen, erhielten einen mittleren Befallindex (ima) der deutlich kleiner war (ima=3) als derjenige der Pflanzen, die im Boden ohne Behandlung (ima=4,33) wuchsen.

[7] = tested on: Kresse (Nasturtium officinale); experiment: Phytotoxicity: germination and elongation of cress seeds (5.1); conditions: for activity at 50 µM / activity at 500 µM: Nasturtium officinale, 168 h
[8] = tested on: Musa spp. cv Cavendish ,,Gran enano"; experiment: Phytotoxicity: banana plants (5.2); format: in vivo
Text: Man studierte gleitherweise die Phytotoxizität von trans-1,3-Diphenyl-2-[…] auf Pflanzen der Bananenpflanzung (Musa spp. cv Cavendish ,Gran enano"). Bananenpflanzungen, die drei Monate alt waren und aus einer Kultivierung in vitro stammten, pflanzte man in Holzkübel von 5 l Kapazität mit einem Substrat von 1:1:1 (Torf:Sand:Kies) und ordnete diese zufällig in einem Gewächshaus an. Für dieses Experiment ordnete man 10 Replikatoren zur Behandlung und 5 zur Bekämpfung an. […]

[9] = tested on: Vinca major, Adiantum capillus-veneris, Begonia rex, Hedera helix; experiment: Phytotoxicity: development of laboratory plants (5.2); format: in vivo; conditions: 0,05 mmol with irrigation at field capacity, 50 days, 25°C, 80% relative humidity
Method: Die Phytotoxizität der trans-1,3-Diphenyl-2-propen-1-on studierte man im Laboratorium unter Benutzung von Vinca major Pflanzen (8 Pflanzen), Adiantum capillus-veneris (2 Pflanzen), Begonia rex (2 Pflanzen) und Hedera helix (2 Pflanzen), die man an Ort und Stelle zog und in einer Kammer bei 25°C, 80% relativer Luftfeuchtigkeit und 13 Stunden Licht pro Tag kultivierte. Die Hälfte der Pflanzen behandelte man mit einer Dosis von trans-1,3-Diphenyl-2-propen-1-on von 0,05 mmol, das man auf eine Bewässerung mit Feldkapazität anwendete.

Mäusen = conditions: mouse, in vivo; cited from earlier work
Ratte = conditions: rat, cited from earlier work
[10] = read-out: TE: Rate der Verlängerung

What does the source list for `C=C[S+]([O-])c1ccccc1` (centres unmarked) [Verbindung 4, Phenylvinylsulfoxid]?
LC50 [1]: 111 µM and 16.9 µg/mL; EC100 [1]: < 1000 µM and < 152 µg/mL

Which LC50 [1] does the source give for `O=C/C=C/c1ccccc1` [Verbindung 3, trans-Zimtaldehyd] here?
Its LC50 is 24 µM and 3.17 µg/mL.

What about the EC100 [1] of the same compound?
The EC100 was < 1000 µM and < 132 µg/mL.

With `O=C(/C=C/c1ccccc1)c1ccccc1` [Verbindung 8, trans-1,3-diphenyl-2-propen-1-on] as the compound, how does the “Rate der Keimung” value [2] read?
Its value is “variierte bei der Tomate nicht”.

What about the Verlängerungsrate [2] of the same compound?
Its Verlängerungsrate is “variierte bei der Tomate nicht signifikant”.

What about the IC50 ([3]; Globodera pallida, 360 h, 15 days exposure, 10 mmol ZnSO4 as hatching inducer, hatching reduced to half of control, read-out: Bildung von Einschlußkörpern hemmende Dosis 50 (DIE50)) of the same compound?
Its IC50 is 7 µM.

And the activity at 10 µM ([3]; Globodera pallida, after removal of the compound at day 15)?
Its activity at 10 µM is 4.6%.

And the activity at 10 µM ([3]; Globodera pallida, first 15 days)?
The activity at 10 µM was 37.3%.

What about the “Bildung von Einschlußkörpern” value ([3]; concentrations of 0,03 mmol and more, 15 days) of the same compound?
The value was “hörte die Bildung von Einschlußkörpern völlig auf”.

What about the “Reversibility of the hatching-inhibiting effect” value ([3]; dose above 0,03 mmol, cysts washed and placed in 10 mmol ZnSO4 only) of the same compound?
Its value is “unumkehrbar”.

What about the “toxisches Potential pT50” value (Albino-Swiss Maus; estimated from the mouse i.p. data (Luckey and Venugopal)) of the same compound?
The value was 2,14.

What about the “DL0 (letaler Effekt null)” value (Albino-Swiss Maus; male Albino-Swiss mouse, intraperitoneal, 24 h) of the same compound?
Its value is 653,85 mg/kg.

What about the DL50 (Albino-Swiss Maus; male Albino-Swiss mouse, intraperitoneal, 24 h, estimated from regression curve, 1440 min) of the same compound?
Its DL50 is 1492*** mg/Kg.

And the LD50 at 24 h [4]?
Its LD50 at 24 h is 1490 mg/kg.

And the LC50 [1]?
The LC50 was 33 µM and 6.86 µg/mL.

What about the EC100 [1] of the same compound?
The EC100 was < 50 µM and < 10.4 µg/mL.

And the LC50 at 24 h [5]?
The LC50 at 24 h was 24.7 µM.

And the activity at 168 h, 50 µM ([6]; TE: Rate der Verlängerung)?
Its activity at 168 h, 50 µM is 105%.

What about the activity at 168 h, 500 µM ([6]; TE: Rate der Verlängerung) of the same compound?
The activity at 168 h, 500 µM was 89.2%.

And the activity at 168 h, 50 µM ([6]; TG: Rate der Keimung)?
Its activity at 168 h, 50 µM is 103%.

What about the activity at 168 h, 500 µM ([6]; TG: Rate der Keimung) of the same compound?
Its activity at 168 h, 500 µM is 100%.

And the Näherungsweiseeffektivität (Meloidogyne javanica)?
Its Näherungsweiseeffektivität is about 75%.

What about the “lebende Larven der M. javanica” value (Meloidogyne javanica) of the same compound?
The value was 25%.

What about the “mittlerer Befallindex (ima)” value (M. javanica) of the same compound?
Its value is 3.

And the activity at 50 µM [7, 10]?
The activity at 50 µM was 97.9%.

What about the activity at 500 µM [7, 10] of the same compound?
The activity at 500 µM was 18.4%.

And the activity at 50 µM ([7]; read-out: TG: Rate der Keimung)?
Its activity at 50 µM is 78.4%.

What about the activity at 500 µM ([7]; read-out: TG: Rate der Keimung) of the same compound?
The activity at 500 µM was 86.5%.

What about the “TE: Rate der Verlängerung” value ([7]; cress primary root, 0,5 mmol, 7 days, 25°C, percent of control) of the same compound?
Its value is “deutliche Verminderung der primären Wurzel”.

What about the “TG: Rate der Keimung” value ([7]; cress, 0,5 mmol, 7 days, 25°C, percent of control) of the same compound?
Its value is “leichte Verminderung der Keimung”.

What about the “Effekt auf Pflanzen der Bananenpflanzung” value ([8]; 0,05 and 0,5 mmol with irrigation water, after 3 months, greenhouse pots) of the same compound?
Its value is “keinen Effekt”.

And the “Effekt auf Pflanzen der Bananenpflanzung” value ([8]; after 6 months, treated banana plants in the greenhouse of Example 1.2)?
Its value is “Ebensowenig stellt man einen Effekt”.

What about the “Wachstum und allgemeiner Aspekt der Pflanzen” value [9] of the same compound?
The value was “keine Unterschiede im Wachstum oder im allgemeinen Aspekt”.

For `CCOP(=O)(NC(C)C)Oc1ccc(SC)c(C)c1` (centres unmarked) [Fenamifos], which DL50 (Mäusen) is on record?
Its DL50 is 22,7 mg/Kg.

For `CN1CSC(=S)N(C)C1` [Dazomet], which DL50 (Mäusen) is on record?
Its DL50 is 180 mg/kg.

With `C=CSc1ccccc1` [Verbindung 2, Phenylvinylsulfid] as the compound, how does the LC50 [1] read?
Its LC50 is 21 µM and 2.86 µg/mL.

Which DL50 (Mäusen) does the source give for `CNC(=O)O/N=C/C(C)(C)SC` [Aldicarb] here?
Its DL50 is 0,3 mg/Kg.

With `CNC(=O)ON=C(SC)C(=O)N(C)C` [Oxamilo] as the compound, how does the DL50 (Mäusen) read?
Its DL50 is 2,3 mg/Kg.

For `CC(=O)/C=C/c1ccccc1` [Verbindung 5, trans-4-Phenyl-3-buten-2-on], which LC50 [1] is on record?
The LC50 was 168 µM and 24.6 µg/mL.

What about the EC100 [1] of the same compound?
The EC100 was < 1000 µM and < 146 µg/mL.

And the LD50 (Ratte; intraperitoneal)?
The LD50 was 1210 mg/kg.

What about the LD50 (Ratte; intravenous) of the same compound?
The LD50 was 112 mg/kg.

For `O=C1CCC(c2ccccc2)O1` (centres unmarked) [Verbindung 6, γ-Phenyl-γ-butirolacton], which LC50 [1] is on record?
The LC50 was 282 µM and 45.7 µg/mL.

And the EC100 [1]?
The EC100 was < 1000 µM and < 162 µg/mL.

Which LC50 [1] does the source give for `CC(=O)C#Cc1ccccc1` [Verbindung 1, 4-Phenyl-3-butin-2-on] here?
The LC50 was 3.7 µM and 0.53 µg/mL.

What about the EC100 [1] of the same compound?
The EC100 was < 50 µM and < 7.21 µg/mL.

And the “toxischer Effekt” value (Ratte; 56 mg/kg intravenous)?
Its value is “keinen toxischen Effekt”.

With `O=C(Cc1ccccc1)Cc1ccccc1` [Verbindung 7, 1,3-Diphenylaceton] as the compound, how does the LC50 [1] read?
Its LC50 is 961 µM and 202 µg/mL.

With `CNC(=O)Oc1cccc2c1OC(C)(C)C2` [Carbofurano] as the compound, how does the DL50 (Mäusen) read?
Its DL50 is 2 mg/kg.
